In patent US20220089609A1, “SUBSTITUTED QUINAZOLINONE DERIVATIVES AND THEIR USE AS POSITIVE ALLOSTERIC MODULATORS OF MGLUR4” (DOMAIN THERAPEUTICS, priority 2018, published 2022):
Counter-ions that a name gives are not always drawn.

Key:
[1] = tested on: haloperidol-induced catalepsy; assay: Haloperidol-induced catalepsy model in the mouse (bar test); assay type: in vivo; conditions: 1 mg/kg per os 60 minutes after haloperidol (1 mg/kg i.p.), measured between 135 and 270 min after haloperidol injection
Description: This method, which detects anti-cataleptic activity, follows those well-known by one skilled in the art and described in the literature (e.g. Pires et al., Braz J Med and Biol Res 38, 1867-1872, 2005; Shiozaki et al., Psychopharmacology 147, 90-95, 1999). Catalepsy is a symptom of Parkinson's disease, and is characterized by muscular rigidity and fixity of posture.
The procedure applied to the compounds of the invention is as follows:
Catalepsy is assessed using the bar test in mice submitted to acute administration of haloperidol (1 mg/kg, intra-peritoneal or i.p.). Mice (male RjOrl:SWISS mice, weighing 30-35 g at the beginning of the experiment) were placed (6 to 9 in each group) in Plexiglas cages, and injected with haloperidol (1 mg/kg i.p.). The catalepsy response of one mouse was measured when the animal maintained an imposed posture with both forelimbs placed on a horizontal 0.9 cm diameter wire bar suspended 4 cm above a platform. The end point of catalepsy was considered to occur when both forelimbs were removed from the bar, the mouse climbed onto the bar or if the animal moved its head in an exploratory manner. A cut-off time of 180 seconds was applied. The degree of catalepsy was scored 45 minutes after haloperidol administration and continued at 45 minutes intervals for a total of 270 minutes. Between determinations, the animals were returned to their home cages.
Compounds 81, 100, 114, 119, 143 and 144 were evaluated at 1 mg/kg, administered per os, 60 minutes after haloperidol, and compared with a vehicle control group.
The anti-cataleptic effect of the compound was compared to vehicle-treated group using ANOVA test followed by the Dunnett's test.

[2] = molecular target: T1, human mGluR4 (hmGluR4) (Homo sapiens, UniProt Q14833); assay: Calcium assay EC50 determination, positive allosteric modulator activity on hmGluR4 transiently over-expressed in HEK-293 cells; assay type: cell-based; conditions: PAM mode with EC20 glutamate; hmGluR4 in HEK-293 cells; intracellular calcium (Fluo4AM); read-out: mGluR4 positive allosteric modulator activity, half maximal effective concentration (EC50)
T1 construct: expressed in transfected cells; host or cells: HEK-293 cells, transient co-transfection by electroporation
Outline: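 HEK-293 cells transiently co-transfected with hmGluR4, chimeric G protein and glutamate transporters; Fluo4AM calcium read (ex 485/em 525 nm) on FLIPR Tetra. Compound alone 10 min for agonism, then EC20 glutamate with 3 min recording for PAM activity, versus buffer or EC20 glutamate basal.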

T1 sequence (Q14833 33-912): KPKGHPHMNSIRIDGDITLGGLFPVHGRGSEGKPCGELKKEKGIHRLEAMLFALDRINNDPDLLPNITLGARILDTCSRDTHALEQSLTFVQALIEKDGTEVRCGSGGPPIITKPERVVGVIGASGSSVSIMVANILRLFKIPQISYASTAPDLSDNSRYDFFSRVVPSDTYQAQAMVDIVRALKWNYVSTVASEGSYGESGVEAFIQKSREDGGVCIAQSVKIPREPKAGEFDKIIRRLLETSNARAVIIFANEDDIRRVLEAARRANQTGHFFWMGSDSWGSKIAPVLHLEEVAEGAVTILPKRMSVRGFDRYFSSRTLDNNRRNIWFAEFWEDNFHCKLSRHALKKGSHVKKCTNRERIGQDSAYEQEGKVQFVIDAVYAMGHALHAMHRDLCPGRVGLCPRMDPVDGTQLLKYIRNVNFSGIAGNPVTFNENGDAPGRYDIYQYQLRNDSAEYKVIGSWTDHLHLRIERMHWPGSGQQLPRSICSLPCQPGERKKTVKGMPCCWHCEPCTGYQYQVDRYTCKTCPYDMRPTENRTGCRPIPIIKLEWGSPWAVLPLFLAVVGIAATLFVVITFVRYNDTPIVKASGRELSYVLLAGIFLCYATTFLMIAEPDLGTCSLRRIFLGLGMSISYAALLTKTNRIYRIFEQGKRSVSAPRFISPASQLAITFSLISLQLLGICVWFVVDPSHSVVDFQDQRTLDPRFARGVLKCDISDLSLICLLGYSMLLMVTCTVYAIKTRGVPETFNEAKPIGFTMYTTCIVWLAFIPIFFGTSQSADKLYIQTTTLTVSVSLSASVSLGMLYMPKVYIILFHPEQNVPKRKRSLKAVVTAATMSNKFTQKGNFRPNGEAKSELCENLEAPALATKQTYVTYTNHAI

Structure (SMILES) | EC50 [2] [nM] | melting point [°C] | anti-cataleptic effect (mean time of latency spent on the bar) compared to vehicle-treated group [1]
Cc1cc(CCN2CCOCC2)cc2c(=O)[nH]c(-c3cc4ccsc4cn3)nc12 [Compound 100, 8-methyl-6-(2-morpholin-4-yl-ethyl)-2-thieno[2,3-c]pyridin-5-yl-3H-quinazolin-4-one hydrochloride] | ≤ 100 |  | significant anti-cataleptic effect
Cc1cc(OC2CCC(=O)N(C)C2)cc2c(=O)[nH]c(-c3cc4ccsc4cn3)nc12 (stereo not drawn) [Compound 81, 8-Methyl-6-(1-methyl-6-oxo-piperidin-3-yloxy)-2-thieno[2,3-c]pyridin-5-yl-3H-quinazolin-4-one] | ≤ 100 | 221 to 225 | significant anti-cataleptic effect
Cc1cc(CN2CCOCC2)cc2c(=O)[nH]c(-c3cc4sccc4cn3)nc12.Cl [Compound 119, 8-Methyl-6-(morpholinomethyl)-2-(thieno[3,2-c]pyridin-6-yl)quinazolin-4(3H)-one hydrochloride] | ≤ 100 | > 250 | significant anti-cataleptic effect
Cc1cc(CN2CCOCC2)cc2c(=O)[nH]c(-c3cc4ccsc4cn3)nc12 [Compound 114, 8-methyl-6-(morpholinomethyl)-2-thieno[2,3-c]pyridin-5-yl-3H-quinazolin-4-one hydrochloride] | ≤ 100 |  | significant anti-cataleptic effect
CS(=O)(=O)c1ccc(CCCOc2ccc3nc(-c4cc5ccsc5cn4)[nH]c(=O)c3c2)cc1 [Compound 60, 6-[3-(4-Methanesulfonyl-phenyl)-propoxy]-2-thieno[2,3-c]pyridin-5-yl-3H-quinazolin-4-one] | 100 to 1000 | 236 to 237 | 

The next lines start with results.

EC50 [2] [nM] | melting point [°C] | Structure (SMILES) | anti-cataleptic effect (mean time of latency spent on the bar) compared to vehicle-treated group [1]
≤ 100 | > 250 | Cc1cc(CCN2CCN(C)C(=O)C2)cc2c(=O)[nH]c(-c3cc4sccc4cn3)nc12.Cl [Compound 143, 8-Methyl-6-[2-(4-methyl-3-oxo-piperazin-1-yl)ethyl]-2-thieno[3,2-c]pyridin-6-yl-3H-quinazolin-4-one hydrochloride] | significant anti-cataleptic effect
≤ 100 | 106 to 116 | Cc1cc(CCN2CCOC(C)(C)C2)cc2c(=O)[nH]c(-c3cc(C(F)(F)F)ccn3)nc12.Cl [Compound 160, 6-(2-(2,2-dimethylmorpholino)ethyl)-8-methyl-2-(4-(trifluoromethyl)pyridin-2-yl)quinazolin-4(3H)-one hydrochloride] | 
≤ 100 | 245 to 250 | Cc1cc(CN2CCS(=O)(=O)CC2)cc2c(=O)[nH]c(-c3cc4sccc4cn3)nc12 [Compound 150, 6-[(1,1-Dioxo-1,4-thiazinan-4-yl)methyl]-8-methyl-2-thieno[3,2-c]pyridin-6-yl-3H-quinazolin-4-one] | 
100 to 1000 | > 250 | Cc1cc(CN2CCN(C)C(=O)C2)cc2c(=O)[nH]c(-c3cc(C(F)(F)F)ccn3)nc12.Cl [Compound 161, 8-Methyl-6-((4-methyl-3-oxopiperazin-1-yl)methyl)-2-(4-(trifluoromethyl)pyridin-2-yl)quinazolin-4(3H)-one hydrochloride] | 
